System: Detoxification protein genes
Experiment: DNA chip mRNA expression in yeast, detoxification protein genes (Table 8)
Type: cell-based, Saccharomyces cerevisiae S288C
Method in brief: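 Value is the scanned fluorescence intensity ratio of exposed versus chemical-free cells. Log-phase S288C yeast in YPD at 25° C. received one toxic substance for two hours, dosed to slow growth without killing; Cy3/Cy5-labeled cDNA from oligo-dT-purified mRNA was hybridized to a whole-genome chip at 65° C.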

manganese ethylenebis(dithiocarbamate) [(8)]
The level of expressed mRNA in the presence of chemical substance/The level of expressed mRNA in the absence of chemical substance (yeast gene YBL064C): 2.4
The level of expressed mRNA in the presence of chemical substance/The level of expressed mRNA in the absence of chemical substance (yeast gene YBR008C): 2.8
The level of expressed mRNA in the presence of chemical substance/The level of expressed mRNA in the absence of chemical substance (yeast gene YBR145W): 1.0
The level of expressed mRNA in the presence of chemical substance/The level of expressed mRNA in the absence of chemical substance (yeast gene YBR244W): 1.0
The level of expressed mRNA in the presence of chemical substance/The level of expressed mRNA in the absence of chemical substance (yeast gene YBR293W): 0.9
The level of expressed mRNA in the presence of chemical substance/The level of expressed mRNA in the absence of chemical substance (yeast gene YCL035C): 1.4
The level of expressed mRNA in the presence of chemical substance/The level of expressed mRNA in the absence of chemical substance (yeast gene YCL069W): 1.3
The level of expressed mRNA in the presence of chemical substance/The level of expressed mRNA in the absence of chemical substance (yeast gene YCR083W): 1.5
The level of expressed mRNA in the presence of chemical substance/The level of expressed mRNA in the absence of chemical substance (yeast gene YDL100C): 1.7
The level of expressed mRNA in the presence of chemical substance/The level of expressed mRNA in the absence of chemical substance (yeast gene YDL168W): 1.7
The level of expressed mRNA in the presence of chemical substance/The level of expressed mRNA in the absence of chemical substance (yeast gene YDR256C): 0.8
The level of expressed mRNA in the presence of chemical substance/The level of expressed mRNA in the absence of chemical substance (yeast gene YDR453C): 1.3
The level of expressed mRNA in the presence of chemical substance/The level of expressed mRNA in the absence of chemical substance (yeast gene YDR513W): 1.6
The level of expressed mRNA in the presence of chemical substance/The level of expressed mRNA in the absence of chemical substance (yeast gene YDR538W): 1.0
The level of expressed mRNA in the presence of chemical substance/The level of expressed mRNA in the absence of chemical substance (yeast gene YEL027W): 0.9
The level of expressed mRNA in the presence of chemical substance/The level of expressed mRNA in the absence of chemical substance (yeast gene YEL065W): 0.9
The level of expressed mRNA in the presence of chemical substance/The level of expressed mRNA in the absence of chemical substance (yeast gene YER185W): 1.0
The level of expressed mRNA in the presence of chemical substance/The level of expressed mRNA in the absence of chemical substance (yeast gene YFL050C): 0.9
The level of expressed mRNA in the presence of chemical substance/The level of expressed mRNA in the absence of chemical substance (yeast gene YGL013C): 1.4
The level of expressed mRNA in the presence of chemical substance/The level of expressed mRNA in the absence of chemical substance (yeast gene YGL254W): 1.4
The level of expressed mRNA in the presence of chemical substance/The level of expressed mRNA in the absence of chemical substance (yeast gene YGR088W): 0.8
The level of expressed mRNA in the presence of chemical substance/The level of expressed mRNA in the absence of chemical substance (yeast gene YGR138C): 1.0
The level of expressed mRNA in the presence of chemical substance/The level of expressed mRNA in the absence of chemical substance (yeast gene YGR197C): 0.8
The level of expressed mRNA in the presence of chemical substance/The level of expressed mRNA in the absence of chemical substance (yeast gene YGR209C): 1.6
The level of expressed mRNA in the presence of chemical substance/The level of expressed mRNA in the absence of chemical substance (yeast gene YGR224W): 0.6
The level of expressed mRNA in the presence of chemical substance/The level of expressed mRNA in the absence of chemical substance (yeast gene YHL040C): 1.5
The level of expressed mRNA in the presence of chemical substance/The level of expressed mRNA in the absence of chemical substance (yeast gene YHL047C): 1.5
The level of expressed mRNA in the presence of chemical substance/The level of expressed mRNA in the absence of chemical substance (yeast gene YHR008C): 0.9
The level of expressed mRNA in the presence of chemical substance/The level of expressed mRNA in the absence of chemical substance (yeast gene YHR048W): 1.9
The level of expressed mRNA in the presence of chemical substance/The level of expressed mRNA in the absence of chemical substance (yeast gene YHR053C): 2.2
The level of expressed mRNA in the presence of chemical substance/The level of expressed mRNA in the absence of chemical substance (yeast gene YHR055C): 2.1
The level of expressed mRNA in the presence of chemical substance/The level of expressed mRNA in the absence of chemical substance (yeast gene YIR002C): 1.2
The level of expressed mRNA in the presence of chemical substance/The level of expressed mRNA in the absence of chemical substance (yeast gene YIR038C): 1.3
The level of expressed mRNA in the presence of chemical substance/The level of expressed mRNA in the absence of chemical substance (yeast gene YJL101C): 1.3
The level of expressed mRNA in the presence of chemical substance/The level of expressed mRNA in the absence of chemical substance (yeast gene YJR104C): 1.5
The level of expressed mRNA in the presence of chemical substance/The level of expressed mRNA in the absence of chemical substance (yeast gene YKL026C): 1.8
The level of expressed mRNA in the presence of chemical substance/The level of expressed mRNA in the absence of chemical substance (yeast gene YKL064W): 0.9
The level of expressed mRNA in the presence of chemical substance/The level of expressed mRNA in the absence of chemical substance (yeast gene YKR066C): 0.7
The level of expressed mRNA in the presence of chemical substance/The level of expressed mRNA in the absence of chemical substance (yeast gene YKR105C): 1.3
The level of expressed mRNA in the presence of chemical substance/The level of expressed mRNA in the absence of chemical substance (yeast gene YKR106W): 1.3
The level of expressed mRNA in the presence of chemical substance/The level of expressed mRNA in the absence of chemical substance (yeast gene YLL028W): 0.7
The level of expressed mRNA in the presence of chemical substance/The level of expressed mRNA in the absence of chemical substance (yeast gene YLL057C): 1.4
The level of expressed mRNA in the presence of chemical substance/The level of expressed mRNA in the absence of chemical substance (yeast gene YLL060C): 5.8
The level of expressed mRNA in the presence of chemical substance/The level of expressed mRNA in the absence of chemical substance (yeast gene YLR043C): 1.1
The level of expressed mRNA in the presence of chemical substance/The level of expressed mRNA in the absence of chemical substance (yeast gene YLR046C): 0.5
The level of expressed mRNA in the presence of chemical substance/The level of expressed mRNA in the absence of chemical substance (yeast gene YML028W): 0.8
The level of expressed mRNA in the presence of chemical substance/The level of expressed mRNA in the absence of chemical substance (yeast gene YML116W): 2.2
The level of expressed mRNA in the presence of chemical substance/The level of expressed mRNA in the absence of chemical substance (yeast gene YMR015C): 0.7
The level of expressed mRNA in the presence of chemical substance/The level of expressed mRNA in the absence of chemical substance (yeast gene YMR038C): 1.9
The level of expressed mRNA in the presence of chemical substance/The level of expressed mRNA in the absence of chemical substance (yeast gene YNL239W): 1.3
The level of expressed mRNA in the presence of chemical substance/The level of expressed mRNA in the absence of chemical substance (yeast gene YNL241C): 0.9
The level of expressed mRNA in the presence of chemical substance/The level of expressed mRNA in the absence of chemical substance (yeast gene YNL259C): 1.5
The level of expressed mRNA in the presence of chemical substance/The level of expressed mRNA in the absence of chemical substance (yeast gene YOL158C): 0.7
The level of expressed mRNA in the presence of chemical substance/The level of expressed mRNA in the absence of chemical substance (yeast gene YOR031W): 0.9
The level of expressed mRNA in the presence of chemical substance/The level of expressed mRNA in the absence of chemical substance (yeast gene YOR153W): 0.5
The level of expressed mRNA in the presence of chemical substance/The level of expressed mRNA in the absence of chemical substance (yeast gene YOR247W): 0.7

— patent US8192962B2, “Processes for detecting toxic substances” (Daikin Industries, Ltd., priority 2001, dated 2012)
